Experimental data reported in patent US20070202503A1, “Pharmaceutical Composition Of (+)-Erythro-Mefloquine And Its Use” (priority 2004, published 2007).

Experiments:
[1] = Adverse events in clinical study on a background of methotrexate therapy; format: in vivo, patients; conditions: combination of (+)-erythro-mefloquine and methotrexate
Source text: The formulations were used on a background of methotrexate therapy.
This is shown in FIG. 2, a plot of TMD (mean score) against time (days); ♦ represents placebo, ▴ represents A, ▪ represents B and ★ represents C.

[2] = system: human neutrophil; conditions: cited from earlier work

SMILES	Adverse events compared with methotrexate alone [1]	effect on human neutrophil degranulation [2]
O[C@H](c1cc(C(F)(F)F)nc2c(C(F)(F)F)cccc12)[C@@H]1CCCCN1 [(+)-erythro-mefloquine]	lower adverse events than methotrexate alone	–
OC(c1cc(C(F)(F)F)nc2c(C(F)(F)F)cccc12)C1CCCCN1 (racemic) [Racemic mefloquine, mefloquine]	–	stimulates human neutrophil degranulation
